# Test results: ChEMBL document CHEMBL6096728, “Simultaneous Induction of Immunogenic Pyroptosis and PD-L1 Downregulation by One Single Photosensitizer for Synergistic Cancer Photoimmunotherapy” (J Med Chem, 2025)
# Calls of active or inactive are those of the source. The rule behind the calls is not given here.
# Assays:
# MDA-MB-231 [1] = experiment: Induction of pyroptosis in human MDA-MB-231 cells assessed as increase in LDH release at 0.1 to 0.5 uM incubated for 12 hrs under light irradiation of 20 mW.cm/2 at 400 to 700nm for 10 mins; assay type: functional, cell-based; conditions: dose 0.1-0.5 µM
# 4T1 [2] = experiment: Antitumor immunity against mouse 4T1 cells implanted in BALB/c mouse model assessed as increase in IL1beta secretion in tumors at 25 mg/kg, iv measured after 14 days under light irradiation of 300 mW.cm/2 at 400 to 700nm measured after 5 mins by ELISA method; assay type: functional, organism-based; conditions: time 14.0 day
# [3] = Toxicity in BALB/c mouse assessed as change in body weight at 25 mg/kg, iv measured after 14 days; assay type: organism-based; conditions: in vivo, 336 h, time 14 day
# 4T1 [4] = experiment: Inhibition of mouse 4T1 cells at 0.1 uM under light irradiation of 20 mW.cm/2 at 400 to 700nm measured after 14 days by crystal violet staining based assay; assay type: functional, cell-based; conditions: time 14.0 day
# MDA-MB-231 [5] = experiment: Induction of pyroptosis in human MDA-MB-231 cells assessed as upregulation of GSDME-N expression level at 0.1 to 0.5 uM preincubated with compound for 12 hrs followed by light irradiation of 20 mW.cm/2 at 400 to 700nm for 10 mins by Western blot analysis; assay type: functional, cell-based; conditions: dose 0.1-0.5 µM
# MDA-MB-231 [6] = experiment: Induction of pyroptosis in human MDA-MB-231 cells assessed as upregulation of caspase-3 expression level at 0.1 to 0.5 uM preincubated with compound for 12 hrs followed by light irradiation of 20 mW.cm/2 at 400 to 700nm for 10 mins by Western blot analysis; assay type: functional, cell-based; conditions: dose 0.1-0.5 µM
# [7] = Phototoxicity against mouse 4T1 cells preincubated for 24 hrs followed by light irradiation of 20 mW.cm/2 at 400 to 700nm for 10 mins under hypoxia condition by CCK-8 method; assay type: functional, cell-based; conditions: 4T1, light or radiation study
# [8] = Phototoxicity against mouse 4T1 cells preincubated for 2 hrs followed by light irradiation of 20 mW.cm/2 at 400 at 700nm for 24 hrs by CCK-8 method; assay type: functional, cell-based; conditions: 4T1, light or radiation study
# [9] = Toxicity in BALB/c mouse assessed as effect on spleen at 25 mg/kg, iv measured after 14 days under light irradiation of 300 mW.cm/2 at 400 to 700nm measured after 5 mins; assay type: organism-based; conditions: in vivo, 336 h, 0.7 µM, time 14 day
# [10] = Toxicity in BALB/c mouse assessed as effect on lung at 25 mg/kg, iv measured after 14 days by H and E staining based analysis; assay type: organism-based; conditions: in vivo, 336 h, time 14 day
# MDA-MB-231 [11] = experiment: Induction of intracellular ROS generation in human MDA-MB-231 cells assessed as increase in fluorescence intensity at 0.1 uM preincubated for 2 hrs followed by compound washout further incubated with DCFH-DA probe for 30 mins under light irradiation of 20 mW.cm/2 at 400 to 700nm measured after 10 mins by flow cytometry analysis; assay type: functional, cell-based
# 4T1 [12] = experiment: Antitumor activity against mouse 4T1 cells implanted in BALB/c mouse model assessed as reduction in tumor volume at 25 mg/kg, iv measured after 14 days; assay type: functional, organism-based; conditions: time 14.0 day
# MDA-MB-231 [13] = experiment: Induction of cell death in human MDA-MB-231 cells assessed as decrease in green fluorescence at 0.5 uM incubated for 24 hrs followed by light irradiation of 20 mW.cm/2 at 400 to 700nm for 10 mins by Calcein-AM/PI staining based analysis; assay type: functional
# [14] = Toxicity in BALB/c mouse assessed as effect on liver at 25 mg/kg, iv measured after 14 days by H and E staining based analysis; assay type: organism-based; conditions: in vivo, 336 h, time 14 day
# MDA-MB-231 [15] = experiment: Downregulation of PD-L1 expression level in human MDA-MB-231 cells at 0.5 uM preincubated with chloroquine followed by compound addition and measured after 24 hrs under light irradiation of 20 mW.cm/2 at 400 to 700nm for 10 mins by Western blot analysis; assay type: functional, cell-based
# [16] = Toxicity in BALB/c mouse assessed as effect on platelets at 25 mg/kg, iv measured after 14 days under light irradiation of 300 mW.cm/2 at 400 to 700nm measured after 5 mins; assay type: organism-based; conditions: in vivo, 336 h, 0.7 µM, time 14 day
# [17] = Drug uptake in mouse 4T1 cells assessed as increase in fluorescence intensity at 2.5 uM measured after 10 mins by flow cytometry analysis; assay type: ADME, cell-based; conditions: 4t1, 10 min
# 4T1 [18] = experiment: Antitumor immunity against mouse 4T1 cells implanted in BALB/c mouse model assessed as upregulation of proportion of macrophage in lymph node at 25 mg/kg, iv measured after 14 days under light irradiation of 300 mW.cm/2 at 400 to 700nm measured after 5 mins by flow cytometry analysis; assay type: functional, organism-based; conditions: time 14.0 day
# 4T1 [19] = experiment: Cytotoxicity against mouse 4T1 cells at 0.01 to 10 uM incubated for 2 hrs under dark condition by CCK-8 method; assay type: functional, cell-based; conditions: dose 0.01-10 µM
# Homo sapiens = species: Homo sapiens; experiment: Binding affinity to PD-L1 (unknown origin) by streptavidin-biotin pull down assay
# MDA-MB-231 [20] = experiment: Cytotoxicity against human MDA-MB-231 cells at 0.01 to 10 uM incubated for 2 hrs under dark condition by CCK-8 method; assay type: functional, cell-based; conditions: dose 0.01-10 µM
# 4T1 [21] = experiment: Induction of cell death in mouse 4T1 cells assessed as increase in red fluorescence at 0.5 uM incubated for 24 hrs followed by light irradiation of 20 mW.cm/2 at 400 to 700nm for 10 mins by Calcein-AM/PI staining based analysis; assay type: functional
# [22] = Drug uptake in mouse 4T1 cells assessed as increase in fluorescence intensity at 2.5 uM measured after 180 mins by flow cytometry analysis; assay type: ADME, cell-based; conditions: 4t1, 3 h
# MDA-MB-231 [23] = experiment: Induction of pyroptosis mediated immunogenic cell death in human MDA-MB-231 cells assessed as increase in HMGB1 release at 0.5 uM incubated for 12 hrs under light irradiation of 20 mW.cm/2 at 400 to 700nm for 10 mins; assay type: functional, cell-based
# 4T1 [24] = experiment: Induction of cell death in mouse 4T1 cells assessed as decrease in green fluorescence at 0.5 uM incubated for 24 hrs followed by light irradiation of 20 mW.cm/2 at 400 to 700nm for 10 mins by Calcein-AM/PI staining based analysis; assay type: functional
# [25] = Toxicity in BALB/c mouse assessed as effect on heart at 25 mg/kg, iv measured after 14 days by H and E staining based analysis; assay type: organism-based; conditions: in vivo, 336 h, time 14 day
# [26] = Toxicity in BALB/c mouse assessed as effect on platelets at 25 mg/kg, iv measured after 14 days; assay type: organism-based; conditions: in vivo, 336 h, time 14 day
# MDA-MB-231 [27] = experiment: Induction of pyroptosis in human MDA-MB-231 cells assessed as formation of bubble-like protrusion on plasma membrane at 0.25 uM preincubated with compound for 12 hrs followed by light irradiation of 20 mW.cm/2 at 400 to 700nm for 10 mins by microscopy analysis; assay type: functional, cell-based
# [28] = Toxicity in BALB/c mouse assessed as effect on spleen at 25 mg/kg, iv measured after 14 days by H and E staining based analysis; assay type: organism-based; conditions: in vivo, 336 h, time 14 day
# MDA-MB-231 [29] = experiment: Photocytotoxicity in human MDA-MB-231 cells assessed as cell viablity incubated for 24 hrs under light irradiation of 50 mW.cm/2 at 400 to 700nm measured after 10 mins in hypoxia condition by CCK-8 method; assay type: functional, cell-based; conditions: MDA-MB-231, light or radiation study
smiles,measurement,setting,value
O=c1cc2sc3cc(N4CCNCC4)ccc3nc-2c2ccccc12,Activity,MDA-MB-231 [1],Active
same,Activity,4T1 [2],Active
same,Activity,[3],Non-toxic
same,inhibition,4T1 [4],Active
same,Activity,MDA-MB-231 [5],Active
same,Activity,MDA-MB-231 [6],Active
same,IC50,[7],693 nM
same,IC50,[8],403 nM
same,Activity,[9],Non-toxic
same,Activity,[10],Non-toxic
same,Activity,MDA-MB-231 [11],Active
same,Activity,4T1 [12],Active
same,Activity,MDA-MB-231 [13],Active
same,Activity,[14],Non-toxic
same,Activity,MDA-MB-231 [15],inactive
same,Activity,[16],Non-toxic
same,Drug uptake,[17],Active
same,Activity,4T1 [18],Active
same,Activity,4T1 [19],Active; Compound Showed Low Toxicity
same,Activity,Homo sapiens,Not active; Compound Rarely Binds To Pd-L1
same,Activity,MDA-MB-231 [20],Active; Compound Showed Low Toxicity
same,Activity,4T1 [21],Active
same,Drug uptake,[22],Active
same,Activity,MDA-MB-231 [23],Active
same,Activity,4T1 [24],Active
same,Activity,[25],Non-toxic
same,Activity,[26],Non-toxic
same,Activity,MDA-MB-231 [27],Active
same,Activity,[28],Non-toxic
same,IC50,MDA-MB-231 [29],983 nM
